This assay deals with C57BL/6 mice. Kind of assay: Von Frey test of mechanical hypersensitivity. The class given is in vivo, Mice (Mus musculus). The method, then:
We utilized WT C57BL/6 mice purchased from Envigo (Indianapolis, IN, USA). Total sixteen adult male mice (8–9 weeks, 22 ± 2 g) were housed in four ventilated Plexiglas cages (4 mice per cage). Four mice were tested in each group. Mice are maintained at temperature (21 °C) in an animal housing facility accredited by the Association for Assessment and Accreditation of Laboratory Animal Care with a reversed 12-hour dark-light cycle (lights off at 1000, lights on at 2200). This study was carried out in accordance with the recommendations of the National Institutes of Health Guide for the Care and Use of Laboratory Animals. The protocol (#1201000592 by Y.F.L. for Zebrafish, and #1605001408 by R.M.vR for mice) was approved by the Purdue University Institutional Animal Care and Use Committee.
Von Frey filaments (2.44 (0.04 g)–4.31 (2 g)) and a grid platform (#58011 and #57816, Stoelting, WI, USA) were used to test mechanical hypersensitivity of mice. A modified up-and-down method was utilized as previously described. […] Drug-induced mechanical hypersensitivity was measured 30 minutes after the second injection. […]
All data are presented as means ± standard error of the mean (SEM). For our in vitro statistical analysis, AUC of calcium influx (RFU) was measured to plot dose-response curves, which were further analyzed by nonlinear regression analysis. […] EC50 values of the dose-response curves were further used to plot Schild curves, and the curves were analyzed with linear regression analysis. For the mice von Frey test, mechanical thresholds were analyzed with two-way ANOVA followed by a Bonferonni test for multiple comparison analysis. […] AUC of all curves were measured and analyzed by one-way ANOVA. […] For our time-course average displacement graph, we used 2nd degree polynomial smoothing for a better representation; however, we used data before smoothing for all statistical analysis and quantification. All in vitro and in vivo data were evaluated using GraphPad Prism 7 (GraphPad Software, La Jolla, CA) unless it stated otherwise.

On to `CC(C)CN1C(=O)/C(=C/C(=O)O)c2cccc(F)c21` [ASP7663], for which the “mechanical thresholds of von Frey filaments, pre- vs post-drug” value (ASP7663 1 mg/kg i.p., measured 30 minutes after injection) is reported as “significantly decreased mechanical thresholds”.

Regarding `CC(C)c1ccc(NC(=O)Cn2cnc3c2c(=O)n(C)c(=O)n3C)cc1` [HC-030031], the “block of ASP7663-induced mechanical hypersensitivity” value (HC-030031 100 mg/kg p.o. 30 min before ASP7663 1 mg/kg i.p.) is given as “blocked mechanical hypersensitivity induced by ASP7663”. Also, the “mechanical thresholds of von Frey filaments, pre- vs post-drug” value (HC-030031 100 mg/kg p.o. alone) is “did not show a statistical significance between pre- and post-drug mechanical thresholds”.

Source of the values: publication PMC6382835, “A critical evaluation of TRPA1-mediated locomotor behavior in zebrafish as a screening tool for novel anti-nociceptive drug discovery” (Scientific Reports, 2019).
